{
  "source": "ChEMBL document CHEMBL6182948",
  "about": "(J Med Chem, 2025)",
  "key": {"[1]": {"experiment": "Metabolic stability in liver microsomes (unknown origin) assessed as compound remaining at 0.5 mg/ml measured after 5 mins in presence of NADPH regenerating system by LC-MS/MS analysis relative to control", "format": "ADME, Microsome", "details": "read-out: Stability"}, "[2]": {"target": "CYP3A4 (Homo sapiens, UniProt P08684)", "sequence (P08684 whole entry)": "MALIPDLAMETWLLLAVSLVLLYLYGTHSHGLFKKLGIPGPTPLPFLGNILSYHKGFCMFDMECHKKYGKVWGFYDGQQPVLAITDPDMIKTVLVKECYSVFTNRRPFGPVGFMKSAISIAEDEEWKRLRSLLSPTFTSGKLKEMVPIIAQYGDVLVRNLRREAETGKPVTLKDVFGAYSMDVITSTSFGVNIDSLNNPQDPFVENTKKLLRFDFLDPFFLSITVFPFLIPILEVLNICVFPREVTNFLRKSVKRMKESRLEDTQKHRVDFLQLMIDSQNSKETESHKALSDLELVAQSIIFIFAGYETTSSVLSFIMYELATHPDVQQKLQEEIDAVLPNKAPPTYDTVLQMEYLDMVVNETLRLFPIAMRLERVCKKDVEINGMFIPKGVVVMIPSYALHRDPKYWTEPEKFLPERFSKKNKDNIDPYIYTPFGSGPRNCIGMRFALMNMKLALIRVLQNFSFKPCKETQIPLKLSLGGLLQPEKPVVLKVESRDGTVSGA", "experiment": "Inhibition of CYP3A4 in human liver microsome at 10 uM pre-incubated with compound for 5 mins followed NADPH addition and measured after 5 mins by LC-MS/MS analysis relative to control", "format": "ADME", "details": "liver microsomes, time 10 min"}, "[3]": {"target": "T1, CYP2C8 (Homo sapiens, UniProt P10632)", "T1 sequence (P10632 whole entry)": "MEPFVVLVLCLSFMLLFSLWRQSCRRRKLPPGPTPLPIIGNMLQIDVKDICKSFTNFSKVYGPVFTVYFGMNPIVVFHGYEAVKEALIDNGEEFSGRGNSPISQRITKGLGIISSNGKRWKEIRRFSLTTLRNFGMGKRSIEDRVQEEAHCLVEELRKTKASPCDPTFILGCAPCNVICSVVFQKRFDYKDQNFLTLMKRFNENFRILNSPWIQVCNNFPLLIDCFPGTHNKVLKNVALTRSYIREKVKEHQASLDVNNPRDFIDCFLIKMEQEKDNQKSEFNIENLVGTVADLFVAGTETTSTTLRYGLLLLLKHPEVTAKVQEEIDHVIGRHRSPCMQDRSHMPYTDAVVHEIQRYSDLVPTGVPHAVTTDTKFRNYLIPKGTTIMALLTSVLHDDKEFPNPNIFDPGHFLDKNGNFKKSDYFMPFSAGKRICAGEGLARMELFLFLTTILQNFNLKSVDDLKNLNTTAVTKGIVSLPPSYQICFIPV", "experiment": "Inhibition of CYP2C8 in human liver microsome at 10 uM pre-incubated with compound for 5 mins followed NADPH addition and measured after 5 mins by LC-MS/MS analysis relative to control", "format": "ADME", "details": "liver microsomes, time 10 min"}, "[4]": {"experiment": "Stability in human plasma assessed as compound remaining at 100 uM measured after 60 mins by LC-MS/MS analysis", "format": "ADME, cell-free", "details": "read-out: Stability"}, "[5]": {"species_on_record": "Homo sapiens", "experiment": "Selectivity index, ratio of IC50 for human recombinant CYP1A2 to IC50 for human recombinant CYP1B1 using 7-ethoxyresorufin as substrate"}, "[6]": {"experiment": "Stability in human plasma assessed as compound remaining at 100 uM measured after 15 mins by LC-MS/MS analysis", "format": "ADME, cell-free", "details": "read-out: Stability"}, "[7]": {"target": "Cytochrome P450 3A4 (Homo sapiens, UniProt P08684)", "sequence (P08684 whole entry)": "as the sequence (P08684 whole entry) above", "experiment": "Inhibition of CYP3A4 in human liver microsome pre-incubated with compound for 5 mins followed NADPH addition and measured after 5 mins by LC-MS/MS analysis", "format": "ADME, microsomes"}, "[8]": {"target": "T2, Cytochrome P450 1A2 (Homo sapiens, UniProt P05177)", "T2 sequence (P05177 whole entry)": "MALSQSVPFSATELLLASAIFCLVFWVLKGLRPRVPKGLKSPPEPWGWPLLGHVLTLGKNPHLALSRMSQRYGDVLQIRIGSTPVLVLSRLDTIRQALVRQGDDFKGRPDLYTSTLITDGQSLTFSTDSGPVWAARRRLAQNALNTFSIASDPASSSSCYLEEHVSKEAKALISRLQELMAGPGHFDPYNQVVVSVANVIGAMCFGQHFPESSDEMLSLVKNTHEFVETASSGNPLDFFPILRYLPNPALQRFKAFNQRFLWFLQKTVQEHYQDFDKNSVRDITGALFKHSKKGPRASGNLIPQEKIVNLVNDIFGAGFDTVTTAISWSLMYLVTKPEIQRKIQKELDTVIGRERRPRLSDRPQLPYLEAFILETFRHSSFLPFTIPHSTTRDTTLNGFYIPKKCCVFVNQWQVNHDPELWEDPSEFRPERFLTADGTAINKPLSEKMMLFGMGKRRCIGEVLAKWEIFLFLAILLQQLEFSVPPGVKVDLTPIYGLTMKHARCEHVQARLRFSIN", "experiment": "Inhibition of human recombinant CYP1A2 using 7-ethoxyresorufin as substrate incubated under dark condition for 45 mins in presence of NADPH by EROD fluorescence assay", "format": "ADME"}, "[9]": {"experiment": "Stability in human plasma assessed as compound remaining at 100 uM measured after 120 mins by LC-MS/MS analysis", "format": "ADME, cell-free", "details": "read-out: Stability"}, "[10]": {"target": "T3, Cytochrome P450 1B1 (Homo sapiens, UniProt Q16678)", "T3 sequence (Q16678 whole entry)": "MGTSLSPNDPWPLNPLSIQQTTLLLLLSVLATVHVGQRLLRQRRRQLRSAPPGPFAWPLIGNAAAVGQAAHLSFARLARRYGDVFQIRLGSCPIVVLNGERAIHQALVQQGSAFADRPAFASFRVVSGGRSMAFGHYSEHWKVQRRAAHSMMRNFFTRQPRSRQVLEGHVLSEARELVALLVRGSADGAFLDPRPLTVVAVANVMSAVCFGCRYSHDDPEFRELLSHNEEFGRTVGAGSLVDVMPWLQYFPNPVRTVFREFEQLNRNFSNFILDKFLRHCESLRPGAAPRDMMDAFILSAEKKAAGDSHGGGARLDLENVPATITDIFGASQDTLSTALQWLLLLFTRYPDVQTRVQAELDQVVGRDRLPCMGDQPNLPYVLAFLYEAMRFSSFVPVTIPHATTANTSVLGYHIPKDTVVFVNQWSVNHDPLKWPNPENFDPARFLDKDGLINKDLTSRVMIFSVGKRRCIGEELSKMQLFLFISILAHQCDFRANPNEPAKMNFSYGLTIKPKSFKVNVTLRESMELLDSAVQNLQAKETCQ", "experiment": "Inhibition of human recombinant CYP1B1 using 7-ethoxyresorufin as substrate incubated under dark condition for 30 mins in presence of NADPH by EROD fluorescence assay", "format": "ADME"}, "[11]": {"target": "CYP2D6 (Homo sapiens, UniProt P10635)", "sequence (P10635 whole entry)": "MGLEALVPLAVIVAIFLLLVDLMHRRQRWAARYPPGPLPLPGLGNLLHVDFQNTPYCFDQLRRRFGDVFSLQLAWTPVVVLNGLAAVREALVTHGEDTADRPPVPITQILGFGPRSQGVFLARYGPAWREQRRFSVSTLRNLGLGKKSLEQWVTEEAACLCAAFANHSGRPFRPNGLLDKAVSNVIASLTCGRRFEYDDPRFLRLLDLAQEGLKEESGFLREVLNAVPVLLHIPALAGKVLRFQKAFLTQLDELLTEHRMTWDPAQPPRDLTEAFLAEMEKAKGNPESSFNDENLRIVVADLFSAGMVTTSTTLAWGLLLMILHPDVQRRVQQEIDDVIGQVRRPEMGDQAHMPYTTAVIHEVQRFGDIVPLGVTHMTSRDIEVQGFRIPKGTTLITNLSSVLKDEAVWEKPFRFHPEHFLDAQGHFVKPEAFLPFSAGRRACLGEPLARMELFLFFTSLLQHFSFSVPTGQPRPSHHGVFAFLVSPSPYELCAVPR", "experiment": "Inhibition of CYP2D6 in human liver microsome at 10 uM pre-incubated with compound for 5 mins followed NADPH addition and measured after 10 mins by LC-MS/MS analysis relative to control", "format": "ADME", "details": "liver microsomes, time 15 min"}, "[12]": {"experiment": "Stability in human plasma assessed as compound remaining at 100 uM measured immediately by LC-MS/MS analysis", "format": "ADME, cell-free", "details": "read-out: Stability"}, "[13]": {"experiment": "Cytotoxicity against human BEAS-2B cells assessed as inhibition of cell viability incubated for 48 hrs by CCK-8 assay", "format": "toxicity, cell-based"}},
  "note": "pIC50: −log10 of the molar value.",
  "data": [
    {"compound": "N#Cc1ccc(-c2csc(C(=O)Nc3ccc(C(F)(F)F)cc3)n2)cc1", "values": [
      {"measurement": "remaining at 5 min", "setting": "[1]", "result": 93.1, "unit": "%"},
      {"measurement": "inhibition at 5 min, 10 µM", "setting": "[2]", "result": 77.1, "unit": "%"},
      {"measurement": "inhibition at 5 min, 10 µM", "setting": "[3]", "result": 33.6, "unit": "%"},
      {"measurement": "remaining at 1 h, 100 µM", "setting": "[4]", "result": 100, "unit": "%"},
      {"measurement": "Ratio IC50", "setting": "[5]", "result": "> 200000"},
      {"measurement": "remaining at 0.25 h, 100 µM", "setting": "[6]", "result": 94.2, "unit": "%"},
      {"measurement": "pIC50", "setting": "[7]", "result": 5.53},
      {"measurement": "pIC50", "setting": "[8]", "result": "< 5.00"},
      {"measurement": "remaining at 2 h, 100 µM", "setting": "[9]", "result": 93.4, "unit": "%"},
      {"measurement": "pIC50", "setting": "[10]", "result": 10.30},
      {"measurement": "inhibition at 10 min, 10 µM", "setting": "[11]", "result": 23.1, "unit": "%"},
      {"measurement": "remaining at 0 min, 100 µM", "setting": "[12]", "result": 100, "unit": "%"},
      {"measurement": "IC50 at 48 h", "setting": "[13]", "result": "> 20", "unit": "µM"}
    ]},
    {"compound": "N#Cc1ccc(-c2csc(C(=O)Nc3cc(Cl)cc(Cl)c3)n2)cc1", "values": [
      {"measurement": "remaining at 5 min", "setting": "[1]", "result": 93.8, "unit": "%"},
      {"measurement": "inhibition at 5 min, 10 µM", "setting": "[2]", "result": 86.6, "unit": "%"},
      {"measurement": "inhibition at 5 min, 10 µM", "setting": "[3]", "result": 0, "unit": "%"},
      {"measurement": "remaining at 1 h, 100 µM", "setting": "[4]", "result": 114, "unit": "%"},
      {"measurement": "Ratio IC50", "setting": "[5]", "result": "> 56400"},
      {"measurement": "remaining at 0.25 h, 100 µM", "setting": "[6]", "result": 102, "unit": "%"},
      {"measurement": "pIC50", "setting": "[7]", "result": 5.81},
      {"measurement": "pIC50", "setting": "[8]", "result": "< 4.00"},
      {"measurement": "remaining at 2 h, 100 µM", "setting": "[9]", "result": 103, "unit": "%"},
      {"measurement": "pIC50", "setting": "[10]", "result": 8.75},
      {"measurement": "inhibition at 10 min, 10 µM", "setting": "[11]", "result": 0, "unit": "%"},
      {"measurement": "remaining at 0 min, 100 µM", "setting": "[12]", "result": 100, "unit": "%"},
      {"measurement": "IC50 at 48 h", "setting": "[13]", "result": "> 20", "unit": "µM"}
    ]},
    {"compound": "O=C(Nc1cc(Cl)cc(Cl)c1)c1nc(-c2cccc(Cl)c2)cs1", "values": [
      {"measurement": "remaining at 5 min", "setting": "[1]", "result": 99.5, "unit": "%"},
      {"measurement": "inhibition at 5 min, 10 µM", "setting": "[2]", "result": 0.94, "unit": "%"},
      {"measurement": "inhibition at 5 min, 10 µM", "setting": "[3]", "result": 15.7, "unit": "%"},
      {"measurement": "remaining at 1 h, 100 µM", "setting": "[4]", "result": 96.1, "unit": "%"},
      {"measurement": "Ratio IC50", "setting": "[5]", "result": "> 54000"},
      {"measurement": "remaining at 0.25 h, 100 µM", "setting": "[6]", "result": 104, "unit": "%"},
      {"measurement": "pIC50", "setting": "[7]", "result": "< 5.00"},
      {"measurement": "pIC50", "setting": "[8]", "result": "< 4.10"},
      {"measurement": "remaining at 2 h, 100 µM", "setting": "[9]", "result": 93.9, "unit": "%"},
      {"measurement": "pIC50", "setting": "[10]", "result": 8.83},
      {"measurement": "inhibition at 10 min, 10 µM", "setting": "[11]", "result": 0, "unit": "%"},
      {"measurement": "remaining at 0 min, 100 µM", "setting": "[12]", "result": 100, "unit": "%"},
      {"measurement": "IC50 at 48 h", "setting": "[13]", "result": "> 20", "unit": "µM"}
    ]}
  ]
}
